According to patent US20170269060A1, “Assays and Compounds to Treat Kidney Diseases” (Rush University Medical Center, priority 2014, published 2017):
Values after ≈ are worked out from the molar mass of the structure shown.

What was measured:
[1] = tested on: murine podocytes; assay: Primary HCS screen of chemical library, cell roundness Z score, PAN injury; type: cell-based; conditions: PAN 16 μg/ml, 48 hours; for primary hit (protects podocytes from PAN damage): Z-score cutoff ≦−1.28
Experimental: Screening of chemical libraries, which include the MicroSource Spectrum collection (MicroSource Discovery Systems, Inc., Gaylorsville, C T, 2000 compounds) and Enzo kinase inhibitor array (Enzo Life Sciences, Farmingdale, N.Y., 80 compounds), Sigma, Millipore, Tocris and Cayman (41 compounds), was performed using multiwall plates. Podocytes cultured in multiwall plates were used in these assays. 100 nL of each compound, also in multiwall plates (at a stock concentration of 1 mM to 10 mM in DMSO), was added to each well of a podocyte containing multiwall plate using the Perkin Elmer Janus automated workstation with the help of a 96-pin or 384-pin pin tool (100 nL, PerkinElmer). The compounds were added in the absence or presence of podocyte damaging agent (such as PAN). The plates containing the compounds were subsequently placed in tissue culture incubators and cells were further cultured for 1-72 h at 37° C. A compound that decreased PAN damaged was identified by quantifying the changes in at least one of the following parameters: cell morphology, cell roundedness, F-actin intensity, number of focal adhesions, intensity or size of focal adhesions, length of actin fibers, size of actin fibers, percent damaged or percent healthy cells etc. In certain cases, hits were validated by acquiring a fresh batch of the compound from commercial sources and performing dose-response curves. Images from the primary screen were quantified for cell morphology parameter and were normalized by calculating z-score (z) for each test compound, to compensate for any plate-to-plate variability. (Wiggins, Kidney International, 2007) z was calculated for each of the test compounds using the formula: […]
where x is the raw measured value with each compound, μ is the mean of all measured raw values across a plate and a is the standard deviation of the measurements. A z-score of […], corresponding to 90% population under the curve, was used as a cutoff to identify primary hits in the assay.
To identify small molecules that protect podocytes from PAN injury, a chemical library of 2121 pharmacologically active compounds was screened. Podocytes were treated with compounds from the chemical library in the presence of PAN (16 μg/ml) at 37° C. for 48 hours. The assay plates also contained eight positive (PAN and MZR treatment) and eight negative (PAN treatment) control wells. Wells were imaged and analyzed, and the mean cell roundness per cell was calculated for each well. Mean cell roundness was normalized using plate-based positive and negative controls, and a Z score for the change in cell morphology on treatment with each compound (SD away from the plate mean) was calculated. The results from the screen are presented as a graph in FIG. 7A. Wells with nuclei counts. […] Primary hits (compounds that protected podocytes from PAN damage) were identified from the assay using a Z-score cutoff of ≦−1.28 corresponding to the 10% population on one side of the bell-shaped curve. […] Given that our assay is image based, the images from all initial hits were visually inspected manually, which eliminated 10 compounds as nonhits. […] The identified list of primary hit compounds included three Rho kinase inhibitors (Y27632, GSK 429286, and Thiazovivin) and a p38 kinase inhibitor (SB 203580). […] Next, to validate the hit compounds identified from our screen, selected primary hits were reanalyzed using independently obtained powder forms of the compounds.

[2] = tested on: murine podocytes; assay: Podocyte HCS phenotypic assay, PAN-induced podocyte injury; type: cell-based; conditions: for prevention of PAN induced injury, dose-response of percent damaged cells (FIG. 4A-4P): 30 ug/ml PAN, co-treatment, multi-parameter algorithm
Experimental: Conditionally immortalized human and murine podocytes were used in a majority of the assays. Human and murine podocytes were cultured as have been described previously (Saleem et al., JASN 13, 630-638 (2002); Mundel, Reiser et al., Experimental Cell Research, 236, p 248 (1997)). For example, murine podocytes derived from the mouse line H-2Kb-tsA58 were cultured under permissive conditions at 33° C. on rat-tail collagen coated dishes in RPMI medium supplemented with 10% heat inactivated FBS, penicillin and streptomycin (100 U/ml), and 10 U/ml recombinant mouse γ-interferon. Cells were then trypsinized and re-plated for differentiation at 37° C. in medium without γ-interferon. The cells were differentiated for 0 to 7 days and then reseeded to rat-tail collagen coated multi-well plates at a density of 1500/well or 500/well for 96 and 384 well plates, respectively. Cells were then further differentiated for another 5-14 days in the multi-well plates for subsequent experimentation with various reagents prior to fixation and analyses.
In some embodiments, podocytes were cultured at 37° C. for the first 7 days of differentiation in large tissue culture flasks and subsequently reseeded and further cultured at 37° C. in the 96-well assay plates for the next 4-6 days to provide low well-to-well variability in cell number in the assay plates and healthy podocytes expressing specific and well characterized podocyte markers synaptopodin and podocin.
Differentiated podocytes were cultured in 96-well or 384-well multiwall optical plates (PerkinElmer, Boston, Mass.). In some embodiments, differentiated podocytes were treated with various amounts of puromycin aminonucleoside (PAN), […] LPS, Adriamycin and other agents. In some embodiments, the cells were co-treated with chemical and other agents (such as mizouribine) to prevent damage from damaging agents (such as PAN). In other embodiments, the rescue agents were added 0-48 h after the addition of injury causing agents. In some embodiments, patient samples such as blood, serum, urine or other samples were added to differentiated podocytes to identify disease causing agents. In some embodiments, primary, differentiated patient podocytes were cultured to identify defects in structure and/or function.
After culturing for the appropriate time and treatment or control, cultured podocytes in multi-well optical plates were rinsed with phosphate buffered saline (PBS) and subsequently fixed using a solution of paraformaldehyde and sucrose in PBS (at a final concentration of 4% paraformaldehyde and 2% sucrose in PBS) for 30 min at room temperature. Following fixation, the cells were permeabilization using a solution of 0.3% Triton X-100 in PBS for 15 min at room temperature. For visualization of filamentous-actin (F-Actin) in cells, cells were stained with a solution of Alexa fluor 568 phalloidin (Invitrogen), as previously described. HCS CellMask Blue (Invitrogen) was used as a fluorescent stain for visualizing nuclei, cytoplasm and the individual cell boundaries. Additional proteins that were fluorescently labeled and analyzed using appropriate primary mAbs include synaptopodin (synpo, primary mAb from Santa Cruz), Paxillin (primary mAb clone Y113 from Millipore) for quantitation of focal adhesions, beta1 integrin, podocin, WT1 nephrin, CD2-AP may also be used. Other proteins may also be used for labeling. Appropriate secondary antibodies (fluorescently labeled) were used for fluorescent visualizations. High throughput confocal microscopy was done using the Opera LX (Perkin Elmer) with filters and exposure times according to manufacturer's instructions and as described before. Images were used in subsequent image analysis for quantitation of a variety of cellular parameters. Assays were performed in replicate wells for assay robustness.
Images for each frame of each well in multiple fluorescent channels were acquired using OPERA imaging system. […]

| Molecule | primary hit (protects podocytes from PAN damage) [1] | prevention of PAN induced injury, dose-response of percent damaged cells (FIG. 4A-4P) [2] | further results |
| --- | --- | --- | --- |
| C#C[C@]1(OC(C)=O)CC[C@H]2[C@@H]3CCC4=CC(=NO)CC[C@@H]4[C@H]3CC[C@@]21CC (mixture of isomers) [norgestimate] | identified | – | – |
| Cc1cccc(-c2[nH]ncc2-c2ccc3ncccc3n2)n1 [Alk5 Inhibitor2] | – | prevented PAN induced injury | – |
| O=c1cc(-c2ccc(O)cc2)oc2cc(O)cc(O)c12 [Apigenin] | primary hits | prevented PAN induced injury | – |
| COc1ccc2cc3[n+](cc2c1OC)CCc1cc2c(cc1-3)OCO2 [Berberine] | primary hits | prevented PAN induced injury | – |
| C[C@@H]1C[C@H]2[C@@H]3CCC4=CC(=O)C=C[C@]4(C)[C@@]3(F)[C@@H](O)C[C@]2(C)[C@@]1(O)C(=O)CO [DEX, Dexamethasone] | – | – | lowest concentration able to protect cells from PAN damage ([2]; PAN 30 μg/ml, F-actin fiber count, 48 h): 0.1 µM |
| COc1ccc(-c2cc(=O)c3c(O)cc(O)cc3o2)cc1O [Diosmetin] | – | prevented PAN induced injury | – |
| COc1cc2nc(N3CCN(C(=O)C4COc5ccccc5O4)CC3)nc(N)c2cc1OC (stereo not shown) [Doxazocin] | primary hits | prevented PAN induced injury | – |
| CCOc1ccc(Cc2nccc3cc(OCC)c(OCC)cc23)cc1OCC [Ethaverine] | – | prevented PAN induced injury | – |
| Nc1[nH]nc2nnc(-c3c(-c4ccccc4)nn4ccccc34)cc12 [FR 180204] | – | prevented PAN induced injury | – |
| CC1=C(C(=O)Nc2cc3cn[nH]c3cc2F)C(c2ccc(C(F)(F)F)cc2)CC(=O)N1 (stereo not shown) [GSK429286] | primary hit | prevented PAN induced injury | – |
| O=C1Cc2c([nH]c3ccc(Br)cc23)-c2ccccc2N1 [Kenpoullon] | – | prevented PAN induced injury | – |
| c1coc(CNc2ncnc3[nH]cnc23)c1 [Kinetin] | – | prevented PAN induced injury | – |
| NC(=O)c1ncn([C@@H]2O[C@H](CO)[C@@H](O)[C@H]2O)c1O [MZR, Mizoribine] | – | – | Z score of cell roundness ([1]; 37° C., negative Z score = active): −2.31±0.2; EC50 ([2]; Mus musculus, PAN 30 μg/ml, 48 hours, read-out: concentration reducing PAN damage by one half (half-maximal effective concentration)): 1.4 µg/mL (≈ 5.4 µM); concentration affording complete protection of podocytes from PAN injury ([2]; PAN 30 μg/ml, 48 hours): 5 µg/mL; dose-dependent protection of podocytes from PAN-induced injury ([2]; PAN 16-30 μg/ml, 48 hours, F-actin fibers and other parameters): dose-dependent protection |
| COc1nccc(-c2c(-c3ccc(F)cc3)ncn2C2CCC(O)CC2)n1 (stereo not shown) [P38 inhibitor (SB239063)] | – | prevented PAN induced injury | – |
| CN(C)c1ncnc2c1ncn2[C@@H]1O[C@H](CO)[C@@H](N)[C@H]1O [PAN, puromycin aminonucleoside] | – | – | PAN concentration causing half-maximal damage ([2]; Mus musculus, 48 h, read-out: PAN concentration causing half-maximal damage (half-maximal inhibitory concentration)): 16 µg/mL |
| C[S+]([O-])c1ccc(-c2nc(-c3ccncc3)c(-c3ccc(F)cc3)[nH]2)cc1 (stereo not shown) [SB 203580] | primary hit | – | – |
| O=C(NCc1ccccc1)c1csc(Nc2ccncn2)n1 [Thiazovivin] | primary hit | – | – |
| Nc1nc2nc[nH]c2c(=S)[nH]1 [Thioguanidine] | primary hits | prevented PAN induced injury | – |
| C[C@@H](N)[C@H]1CC[C@H](C(=O)Nc2ccncc2)CC1 [Y27632] | primary hit | prevented PAN induced injury | – |
| C=CC[C@]1(O)CC[C@H]2[C@@H]3CCC4=CC(=O)CCC4=C3C=C[C@@]21C [altrenogest] | identified | – | – |
| Agelasine | primary hits | prevented PAN induced injury | – |
| Derusnin | – | prevented PAN induced injury | – |
| Mundeserone | – | prevented PAN induced injury | – |
| antimycin A | primary hits | – | – |
